Experiment [1] has as its target NAMPT (human, recombinant, C-terminally His-tagged) (Homo sapiens, UniProt P43490). As to the kind of experiment: Time-Resolved Fluorescence Resonance Energy Transfer (TR-FRET) Binding Assay of NAMPT. Conditions: 6.8 nM NAMPT, 200 nM probe, equilibrated 3 hours, absence of substrates. In a few lines: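 Recombinant C-terminally His-tagged human NAMPT (6.8 nM) incubated 3 h at room temperature with 200 nM Oregon Green 488–labelled nicotinamide-competitive probe and 1 nM Tb-anti-His antibody in HEPES pH 7.5, 2% DMSO. TR-FRET ratio Em520/Em495 normalized to controls; IC50 from four-parameter logistic fit.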
Background: Time-resolved FRET reads energy transfer from a long-lived donor to a nearby acceptor.

A further experiment has as its target NAMPT (Homo sapiens, UniProt P43490). As to the kind of experiment: Time-Resolved Fluorescence Resonance Energy Transfer (TR-FRET) Binding Assay of NAMPT with PRPP. Conditions: 2 nM NAMPT, 2 nM probe, 200 uM PRPP and 2.5 mM ATP, equilibrated 16 hours. In short, it runs like this: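 Final mix: 2 nM NAMPT, 2 nM probe, 1 nM Tb-anti-His antibody, 200 uM PRPP, 2.5 mM ATP, 2% DMSO in 1× assay buffer. Equilibrated 16 hours before TR-FRET read, allowing possible enzymatic modification of compounds.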

Structures are written as SMILES.

Sequence of NAMPT (P43490 whole entry): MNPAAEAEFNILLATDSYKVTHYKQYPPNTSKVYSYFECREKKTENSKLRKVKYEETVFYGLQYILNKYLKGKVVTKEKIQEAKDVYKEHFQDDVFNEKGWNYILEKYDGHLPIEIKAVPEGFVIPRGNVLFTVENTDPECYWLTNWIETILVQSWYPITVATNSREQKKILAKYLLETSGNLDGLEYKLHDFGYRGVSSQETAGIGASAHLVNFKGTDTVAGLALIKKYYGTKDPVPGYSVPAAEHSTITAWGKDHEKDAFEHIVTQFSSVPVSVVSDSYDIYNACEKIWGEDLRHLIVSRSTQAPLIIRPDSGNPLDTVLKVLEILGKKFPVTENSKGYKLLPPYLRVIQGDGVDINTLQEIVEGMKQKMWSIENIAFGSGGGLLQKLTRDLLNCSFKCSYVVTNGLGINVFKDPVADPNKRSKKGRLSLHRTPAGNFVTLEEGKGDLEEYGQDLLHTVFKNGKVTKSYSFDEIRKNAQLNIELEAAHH
Sequence of NAMPT (human, recombinant, C-terminally His-tagged) (P43490 whole entry): as above

As a reminder, the IC50 is the concentration that inhibits the measured activity by half. Consider `O=C(Nc1ccc(C2CCN(C(=O)c3ccoc3)CC2)cc1)C1CN(c2cccnc2)C1` [Example 104, N-{4-[1-(furan-3-ylcarbonyl)piperidin-4-yl]phenyl}-1-(pyridin-3-yl)azetidine-3-carboxamide], for which the IC50 in experiment [1] is 1.2 nM; at NAMPT it was 0.193 nM.
In the case of `O=C(Nc1ccc(C2CCN(C(=O)CN3CCCC3)CC2)cc1)C1CN(c2cccnc2)C1` [Example 105, 1-(pyridin-3-yl)-N-{4-[1-(pyrrolidin-1-ylacetyl)piperidin-4-yl]phenyl}azetidine-3-carboxamide], the values for the IC50 (in experiment [1]; at NAMPT) were 296 nM and 0.244 nM, respectively.
Take `O=C1CC[C@H](C(=O)N2CCC(c3ccc(NC(=O)C4CN(c5cccnc5)C4)cc3)CC2)N1` [Example 106, N-{4-[1-(5-oxo-D-prolyl)piperidin-4-yl]phenyl}-1-(pyridin-3-yl)azetidine-3-carboxamide]: the IC50 was 160 nM in experiment [1] and 0.221 nM on NAMPT.
On to `CN(C)CCC(=O)N1CCC(c2ccc(NC(=O)C3CN(c4cccnc4)C3)cc2)CC1` [Example 107, N-{4-[1-(N,N-dimethyl-beta-alanyl)piperidin-4-yl]phenyl}-1-(pyridin-3-yl)azetidine-3-carboxamide], for which the IC50 in experiment [1] amounted to 163 nM; at NAMPT, 0.169 nM.
As for `O=C(Nc1ccc(C2CCN(C(=O)c3nccs3)CC2)cc1)C1CN(c2cccnc2)C1` [Example 108, 1-(pyridin-3-yl)-N-{4-[1-(1,3-thiazol-2-ylcarbonyl)piperidin-4-yl]phenyl}azetidine-3-carboxamide], the IC50 in experiment [1] amounted to 3.33 nM; at NAMPT it was 0.176 nM.
Take `O=C(Nc1ccc(C2CCN(C(=O)c3ccsc3)CC2)cc1)C1CN(c2cccnc2)C1` [Example 109, 1-(pyridin-3-yl)-N-{4-[1-(thiophen-3-ylcarbonyl)piperidin-4-yl]phenyl}azetidine-3-carboxamide]: the results for the IC50 (in experiment [1]; on NAMPT) were 5.03 nM and 0.398 nM, respectively.
`CC1(C(=O)N2CCC(c3ccc(NC(=O)C4CN(c5cccnc5)C4)cc3)CC2)CC1` [Example 110, N-(4-{1-[(1-methylcyclopropyl)carbonyl]piperidin-4-yl}phenyl)-1-(pyridin-3-yl)azetidine-3-carboxamide]: the results for the IC50 (in experiment [1]; at NAMPT) were 6.63 nM and 0.169 nM, respectively.
In the case of `Cc1ccsc1C(=O)N1CCC(c2ccc(NC(=O)C3CN(c4cccnc4)C3)cc2)CC1` [Example 111, N-(4-{1-[(3-methylthiophen-2-yl)carbonyl]piperidin-4-yl}phenyl)-1-(pyridin-3-yl)azetidine-3-carboxamide], the results for the IC50 (in experiment [1]; at NAMPT) were 2.84 nM and 0.199 nM, respectively.
Consider `O=C(Nc1ccc(C2CCN(C(=O)CCC(F)(F)F)CC2)cc1)C1CN(c2cccnc2)C1` [Example 112, 1-(pyridin-3-yl)-N-{4-[1-(4,4,4-trifluorobutanoyl)piperidin-4-yl]phenyl}azetidine-3-carboxamide], for which the IC50 in experiment [1] was found to be 40.2 nM; at NAMPT, 0.362 nM.
On the same counts, the results for `CN1CCN(CC(=O)N2CCC(c3ccc(NC(=O)C4CN(c5cccnc5)C4)cc3)CC2)CC1` [Example 113, N-(4-{1-[(4-methylpiperazin-1-yl)acetyl]piperidin-4-yl}phenyl)-1-(pyridin-3-yl)azetidine-3-carboxamide] are 60.6 nM and 0.254 nM.
As to `O=C1CC[C@@H](C(=O)N2CCC(c3ccc(NC(=O)C4CN(c5cccnc5)C4)cc3)CC2)N1` [Example 114, N-{4-[1-(5-oxo-L-prolyl)piperidin-4-yl]phenyl}-1-(pyridin-3-yl)azetidine-3-carboxamide], the IC50 in experiment [1] worked out at 83.9 nM; at NAMPT it was 0.247 nM.
On to `CCOCCC(=O)N1CCC(c2ccc(NC(=O)C3CN(c4cccnc4)C3)cc2)CC1` [Example 115, N-{4-[1-(3-ethoxypropanoyl)piperidin-4-yl]phenyl}-1-(pyridin-3-yl)azetidine-3-carboxamide], for which the IC50 in experiment [1] is 48.2 nM; on NAMPT it was 0.178 nM.
For `CC(C)CCC(=O)N1CCC(c2ccc(NC(=O)C3CN(c4cccnc4)C3)cc2)CC1` [Example 116, N-{4-[1-(4-methylpentanoyl)piperidin-4-yl]phenyl}-1-(pyridin-3-yl)azetidine-3-carboxamide], the figures for the IC50 (in experiment [1]; on NAMPT) were 26.5 nM and 0.204 nM, respectively.
For the compound `CC1(C(=O)N2CCC(c3ccc(NC(=O)C4CN(c5cccnc5)C4)cc3)CC2)CCCCC1` [Example 117, N-(4-{1-[(1-methylcyclohexyl)carbonyl]piperidin-4-yl}phenyl)-1-(pyridin-3-yl)azetidine-3-carboxamide], the results for the IC50 (in experiment [1]; at NAMPT) were 6.27 nM and 0.355 nM, respectively.
`CC(=O)N1CCC(c2ccc(NC(=O)C3CN(c4cccnc4)C3)cc2)CC1` [Example 118, N-[4-(1-acetylpiperidin-4-yl)phenyl]-1-(pyridin-3-yl)azetidine-3-carboxamide]: the half-maximal inhibitory concentration (IC50) in experiment [1] amounted to 14.1 nM; at NAMPT it was 0.169 nM.
On the same counts, the results for `O=C(Nc1ccc(C2CCN(C(=O)CC3CCCCC3)CC2)cc1)C1CN(c2cccnc2)C1` [Example 119, N-{4-[1-(cyclohexylacetyl)piperidin-4-yl]phenyl}-1-(pyridin-3-yl)azetidine-3-carboxamide] are 6.12 nM and 0.169 nM.
The matching figures for `CC(=O)N[C@@H](CC(C)C)C(=O)N1CCC(c2ccc(NC(=O)C3CN(c4cccnc4)C3)cc2)CC1` [Example 120, N-{4-[1-(N-acetyl-L-leucyl)piperidin-4-yl]phenyl}-1-(pyridin-3-yl)azetidine-3-carboxamide]: 11.6 nM and 0.294 nM.
As to `CCC(=O)N1CCC(c2ccc(NC(=O)C3CN(c4cccnc4)C3)cc2)CC1` [Example 121, N-[4-(1-propanoylpiperidin-4-yl)phenyl]-1-(pyridin-3-yl)azetidine-3-carboxamide], the results for the IC50 (in experiment [1]; on NAMPT) were 9.94 nM and 0.169 nM, respectively.
With `O=C(Nc1ccc(C2CCN(C(=O)CC(F)(F)F)CC2)cc1)C1CN(c2cccnc2)C1` [Example 122, 1-(pyridin-3-yl)-N-{4-[1-(3,3,3-trifluoropropanoyl)piperidin-4-yl]phenyl}azetidine-3-carboxamide], the figures for the IC50 (in experiment [1]; at NAMPT) were 7.94 nM and 0.169 nM, respectively.
Turning to `COCCOCC(=O)N1CCC(c2ccc(NC(=O)C3CN(c4cccnc4)C3)cc2)CC1` [Example 123, N-(4-{1-[(2-methoxyethoxy)acetyl]piperidin-4-yl}phenyl)-1-(pyridin-3-yl)azetidine-3-carboxamide], the IC50 is 65.6 nM in experiment [1] and 0.282 nM at NAMPT.
As to `O=C(Nc1ccc(C2CCN(C(=O)CCN3CCOCC3)CC2)cc1)C1CN(c2cccnc2)C1` [Example 124, N-(4-{1-[3-(morpholin-4-yl)propanoyl]piperidin-4-yl}phenyl)-1-(pyridin-3-yl)azetidine-3-carboxamide], the IC50 in experiment [1] worked out at 123 nM; at NAMPT, 0.278 nM.
On the same counts, the results for `CC(C)(C)C(=O)N1CCC(c2ccc(NC(=O)C3CN(c4cccnc4)C3)cc2)CC1` [Example 125, N-{4-[1-(2,2-dimethylpropanoyl)piperidin-4-yl]phenyl}-1-(pyridin-3-yl)azetidine-3-carboxamide] are 15.4 nM and 0.518 nM.
On the same counts, the results for `Cc1ccc(C(=O)N2CCC(c3ccc(NC(=O)C4CN(c5cccnc5)C4)cc3)CC2)s1` [Example 126, N-(4-{1-[(5-methylthiophen-2-yl)carbonyl]piperidin-4-yl}phenyl)-1-(pyridin-3-yl)azetidine-3-carboxamide] are 14.9 nM and 0.359 nM.
The matching figures for `O=C(Nc1ccc(C2CCN(C(=O)c3cccs3)CC2)cc1)C1CN(c2cccnc2)C1` [Example 127, 1-(pyridin-3-yl)-N-{4-[1-(thiophen-2-ylcarbonyl)piperidin-4-yl]phenyl}azetidine-3-carboxamide]: 3.64 nM and 0.391 nM.
With `Cn1cccc1C(=O)N1CCC(c2ccc(NC(=O)C3CN(c4cccnc4)C3)cc2)CC1` [Example 128, N-(4-{1-[(1-methyl-1H-pyrrol-2-yl)carbonyl]piperidin-4-yl}phenyl)-1-(pyridin-3-yl)azetidine-3-carboxamide], the IC50 in experiment [1] was 8.36 nM; at NAMPT, 0.61 nM.
`O=C(Nc1ccc(C2CCN(C(=O)c3ccco3)CC2)cc1)C1CN(c2cccnc2)C1` [Example 129, N-{4-[1-(furan-2-ylcarbonyl)piperidin-4-yl]phenyl}-1-(pyridin-3-yl)azetidine-3-carboxamide]: the figures for the IC50 (in experiment [1]; at NAMPT) were 4.49 nM and 0.367 nM, respectively.
In the case of `O=C(Nc1ccc(C2CCN(C(=O)CCN3CCCCC3)CC2)cc1)C1CN(c2cccnc2)C1` [Example 130, N-(4-{1-[3-(piperidin-1-yl)propanoyl]piperidin-4-yl}phenyl)-1-(pyridin-3-yl)azetidine-3-carboxamide], the figures for the IC50 (in experiment [1]; at NAMPT) were 288 nM and 0.535 nM, respectively.
On to `CCOCC(=O)N1CCC(c2ccc(NC(=O)C3CN(c4cccnc4)C3)cc2)CC1` [Example 131, N-{4-[1-(ethoxyacetyl)piperidin-4-yl]phenyl}-1-(pyridin-3-yl)azetidine-3-carboxamide], for which the IC50 turned out to be 69.9 nM in experiment [1] and 0.474 nM at NAMPT.
On the same counts, the results for `CC(C)(C)CC(=O)N1CCC(c2ccc(NC(=O)C3CN(c4cccnc4)C3)cc2)CC1` [Example 132, N-{4-[1-(3,3-dimethylbutanoyl)piperidin-4-yl]phenyl}-1-(pyridin-3-yl)azetidine-3-carboxamide] are 8.46 nM and 0.441 nM.

Source of the values: patent US8975398B2, “NAMPT inhibitors” (AbbVie Inc., priority 2012, dated 2015).
